Laboratory results taken from patent publication US5238838A (Degussa Aktiengesellschaft, priority 1991, dated 1993).
Where “and” joins values, the source holds several entries; their conditions need not be identical. Equal values may be shown once. Entries after “also recorded” stand apart in the source; their conditions may differ. Where a name gives a salt, the structure may show the parent alone. Read-outs that look alike come from different tables or passages of the source. Where a SMILES comes first, the peptide text is derived from it.

Assays:
L-carnitine amidase [1] = system: L-carnitine amidase;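 also: additives put into the enzyme mixture before substrate, reaction then initiated by substrate addition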
Protocol: In order to test the influence of various additives on the enzyme activity, they were added to the test batches without substrate in a final concentration of 1 mM and 10 mM in each instance. The reaction batches were first incubated for 45 min. at 30° C. before the reaction was started by adding substrate solution.

L-carnitine amidase [2] = test: Substrate spectrum of L-carnitine amidase; type: biochemical, strain DSM 6230; details: substrate 50 mM; 30° C.; 100 mM potassium phosphate buffer pH 8
Protocol: The enzyme test was carried out at 30° C. in 100 mM potassium phosphate buffer pH 8. The substrate concentration was 50 mM.

L-carnitine amidase [3] = test: Test for the induction of L-carnitine amidase; type: cell-based, strain DSM 6230; details: for Activity (mU/mg) / Activity (mU/ml): 5 g/l of the substance as inductor, 36 h, L-carnitine amide as substrate; for Induction of L-carnitine amidase (in words): strain DSM 6230
Protocol: (§1) In this test, various substances were examined for their induction action. At the same time, the growth on these compounds was followed. The medium used was a minimum medium with 1.0 g/l instead of 0.5 g/l yeast extract, to which 5 g/l of the substance to be tested were added in each instance. The culture without inductor contained 5 g/l yeast extract. All tests were carried out with 20 ml shaking cultures which were incubated 36 h at 30° C. and 120 rpms in a rotating [round]shaking machine. These cultures were inoculated with 1% of an initial culture of strain DSM 6230. L-carnitine amide was used as substrate for the enzyme test.
(§2) At the same time, the growth of the bacteria was followed in these carnitine amide concentrations. The culture conditions corresponded to those in example 3.

strain DSM 6230 = test: Growth of strain DSM 6230 on the test substances (OD660); type: cell-based; details: for OD660: 5 g/l of the substance in minimum medium with 1.0 g/l yeast extract, 36 h, 30° C.; for Growth of the strain on the substance (in words): strain DSM 6230
Protocol: 1367 strains were isolated during the screening program. These strains were incubated in 100 ml Erlenmeyer flasks containing 20 ml of the particular enrichment medium in a rotary agitator at 30° C. and 120 rpms. The optical density at 660 nm was taken as an indication for the cell growth.
as §1, §2

[4] = additive 1 mM, 45 min. preincubation at 30° C.
[5] = additive 10 mM, 45 min. preincubation at 30° C.

CN(C)C(=O)Oc1cccc([N+](C)(C)C)c1 [Neostigmine bromide]
Enzyme activity (%) (L-carnitine amidase [1]; [4]): 100% | Enzyme activity (%) (L-carnitine amidase [1]; [5]): 94%

CC(C)[C@H](N)C(=O)N[C@@H](Cc1ccccc1)C(N)=O [L-Val-L-Phe-NH2] (H-Val-Phe-NH2)
Rel. activity (%) (L-carnitine amidase [2]): 0%

CCC(N)=O [Propionamide]
Activity (mU/mg) (L-carnitine amidase [3]): 29 mU/mg | Activity (mU/ml) (L-carnitine amidase [3]): 129 mU/ml | OD660 (strain DSM 6230): 1.1 | Rel. activity (%) (L-carnitine amidase [2]): 0%

[Cl-].[Cl-].[Mg+2] [MgCl2]
Enzyme activity (%) (L-carnitine amidase [1]; [4]): 96% | Enzyme activity (%) (L-carnitine amidase [1]; [5]): 88%

[Cl-].[Cl-].[Zn+2] [ZnCl2]
Enzyme activity (%) (L-carnitine amidase [1]; [4]): 6%

CC(C)CC(=O)C(=O)O [α-ketoisocaproic acid]
Enzyme activity (%) (L-carnitine amidase [1]; [4]): 92% | Enzyme activity (%) (L-carnitine amidase [1]; [5]): 90%

[N-]=[N+]=[N-].[Na+] [NaN3]
Enzyme activity (%) (L-carnitine amidase [1]; [4]): 85% | Enzyme activity (%) (L-carnitine amidase [1]; [5]): 82%

NC(=O)[C@@H](N)Cc1c[nH]c2ccccc12 [L-Trp-NH2]
Rel. activity (%) (L-carnitine amidase [2]): 0%

NC(=O)[C@H](Cc1ccccc1)NC(=O)[C@@H](N)CC(=O)O [L-Asp-L-Phe-NH2] (H-Asp-Phe-NH2)
Rel. activity (%) (L-carnitine amidase [2]): 0%

O=C(O)CI [Iodoacetate]
Enzyme activity (%) (L-carnitine amidase [1]): 97% and 72% | Reduction of the enzyme activity (in words) (L-carnitine amidase [1]): reduction of the enzyme activity

CC(C)C(N)=O [Isobutyramide]
Activity (mU/mg) (L-carnitine amidase [3]): 41 mU/mg | Activity (mU/ml) (L-carnitine amidase [3]): 193 mU/ml | OD660 (strain DSM 6230): 1.1 | Rel. activity (%) (L-carnitine amidase [2]): 0%

C[N+](C)(C)CC(O)CC(=O)[O-] (racemic) [DL-carnitine]
Activity (mU/mg) (L-carnitine amidase [3]): 1255 mU/mg | Activity (mU/ml) (L-carnitine amidase [3]): 5773 mU/ml | OD660 (strain DSM 6230): 2.5 | Growth of the strain on the substance (in words) (strain DSM 6230): Good growth

C[C@H](N)C(N)=O [L-Ala-NH2]
Rel. activity (%) (L-carnitine amidase [2]): 0%

C[N+](C)(C)C[C@H](O)CC#N [L-carnitine nitrile]
Activity (mU/mg) (L-carnitine amidase [3]): 65 mU/mg | Activity (mU/ml) (L-carnitine amidase [3]): 183 mU/ml | OD660 (strain DSM 6230): 0.8 | Rel. activity (%) (L-carnitine amidase [2]): 0%

Cc1ccc(S(=O)(=O)N[C@@H](CCCCN)C(=O)CCl)cc1 [Na-tosyl-L-lysyl-chloromethane hydrochloride]
Enzyme activity (%) (L-carnitine amidase [1]; [4]): 84% | Enzyme activity (%) (L-carnitine amidase [1]; [5]): 73% | Reduction of the enzyme activity (in words) (L-carnitine amidase [1]; concentration of 10 mM): reduction of the enzyme activity

N[C@@H](CCC(=O)N[C@@H](CS)C(=O)NCC(=O)O)C(=O)O [Red. glutathione]
Enzyme activity (%) (L-carnitine amidase [1]): 97% and 92% | Reduction of the enzyme activity (in words) (L-carnitine amidase [1]): reduction of the enzyme activity

NC(=O)C[C@H](N)C(N)=O [L-Asn-NH2]
Rel. activity (%) (L-carnitine amidase [2]): 0%

NC(=O)[C@@H](N)CO [L-Ser-NH2]
Rel. activity (%) (L-carnitine amidase [2]): 0%

C[N+](C)(C)CCCC(=O)[O-] [butyrobetaine, γ-butyrobetaine]
Activity (mU/mg) (L-carnitine amidase [3]): 566 mU/mg | Activity (mU/ml) (L-carnitine amidase [3]): 963 mU/ml | Induction of L-carnitine amidase (in words) (L-carnitine amidase [3]): induced; also recorded: Inductors; also recorded: induce the enzyme | OD660 (strain DSM 6230): 0.7 | Growth of the strain on the substance (in words) (strain DSM 6230): can not be metabolized or are metabolized very poorly

NCC(=O)NCC(N)=O [Gly-Gly-NH2]
Rel. activity (%) (L-carnitine amidase [2]): 0%

C[N+](C)(C)CC(=O)CC(=O)[O-] [Dehydrocarnitine]
Activity (mU/mg) (L-carnitine amidase [3]): 279 mU/mg | Activity (mU/ml) (L-carnitine amidase [3]): 837 mU/ml | Induction of L-carnitine amidase (in words) (L-carnitine amidase [3]): induced; also recorded: Inductors; also recorded: induce the enzyme | OD660 (strain DSM 6230): 0.8 | Growth of the strain on the substance (in words) (strain DSM 6230): can not be metabolized or are metabolized very poorly

[Cl][Hg][Cl] [HnCl2]
Enzyme activity (%) (L-carnitine amidase [1]; [4]): < 1%

CSCC[C@H](N)C(N)=O [L-Met-NH2]
Rel. activity (%) (L-carnitine amidase [2]): 0%

OCCS [2-mercaptoethanol]
Enzyme activity (%) (L-carnitine amidase [1]; [4]): 100% | Enzyme activity (%) (L-carnitine amidase [1]; [5]): 101%

[Cl][Cu][Cl] [CuCl2]
Enzyme activity (%) (L-carnitine amidase [1]; [4]): 70% | Enzyme activity (%) (L-carnitine amidase [1]; [5]): 54%

[Cl-].[Cl-].[Co+2] [CoCl2]
Enzyme activity (%) (L-carnitine amidase [1]; [4]): 90% | Enzyme activity (%) (L-carnitine amidase [1]; [5]): 76% | Reduction of the enzyme activity (in words) (L-carnitine amidase [1]; concentration of 10 mM): reduction of the enzyme activity

CC(C)C[C@@H](N)C(N)=O [D-leucine amide]
Activity (mU/mg) (L-carnitine amidase [3]): 81 mU/mg | Activity (mU/ml) (L-carnitine amidase [3]): 170 mU/ml | OD660 (strain DSM 6230): 0.8

CC[C@H](C)[C@H](N)C(N)=O [L-Ile-NH2]
Rel. activity (%) (L-carnitine amidase [2]): 0%

CC(C)CC(N)C(N)=O (stereo not drawn) [Leu-NH2]
Rel. activity (%) (L-carnitine amidase [2]): 0%
